Legend:
Assay in all cases: relative viability (nuclei count vs DMSO), 5 days (fraction); higher = more cells survive
Obatoclax + Alpelisib = compound: COC1=CC(c2cc3ccccc3[nH]2)=N/C1=C\c1[nH]c(C)cc1C [Obatoclax] + Cc1nc(NC(=O)N2CCC[C@H]2C(N)=O)sc1-c1ccnc(C(C)(C)C(F)(F)F)c1 [Alpelisib] (partner 2 µM)
Summary of the method: (§1)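 One day after seeding in 1536-well plates, lung cancer cell lines were dosed by pin tool. Dosing was either single-drug or a fixed anchor-drug dose plus five library-drug doses (not always all listed) in √10 steps. After 5 days, nuclei were stained in one fix-and-stain step and counted on 4× images, and relative viability is the nuclei count of treated wells over that of vehicle wells, given as the median of duplicate plates.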

Obatoclax + Tozasertib = compound: COC1=CC(c2cc3ccccc3[nH]2)=N/C1=C\c1[nH]c(C)cc1C [Obatoclax] + Cc1cc(Nc2cc(N3CCN(C)CC3)nc(Sc3ccc(NC(=O)C4CC4)cc3)n2)n[nH]1 [Tozasertib] (partner 0.1 µM)
Summary of the method: as §1

Bortezomib + Olaparib = compound: CC(C)C[C@H](NC(=O)[C@H](Cc1ccccc1)NC(=O)c1cnccn1)B(O)O [Bortezomib] + O=C(c1cc(Cc2n[nH]c(=O)c3ccccc23)ccc1F)N1CCN(C(=O)C2CC2)CC1 [Olaparib] (partner 8 µM)
Summary of the method: as §1

Obatoclax + Palbociclib = compound: COC1=CC(c2cc3ccccc3[nH]2)=N/C1=C\c1[nH]c(C)cc1C [Obatoclax] + CC(=O)c1c(C)c2cnc(Nc3ccc(N4CCNCC4)cn3)nc2n(C2CCCC2)c1=O [Palbociclib] (partner 0.5 µM)
Summary of the method: as §1

Row | Cell Line | relative viability (Obatoclax + Alpelisib; first compound 0.01 µM) | relative viability (Obatoclax + Alpelisib; first compound 0.03162 µM) | relative viability (Obatoclax + Alpelisib; first compound 0.1 µM) | relative viability (Obatoclax + Alpelisib; first compound 0.3162 µM) | relative viability (Obatoclax + Alpelisib; first compound 1 µM) | relative viability (Obatoclax + Tozasertib; first compound 0.01 µM) | relative viability (Obatoclax + Tozasertib; first compound 0.03162 µM) | relative viability (Obatoclax + Tozasertib; first compound 0.1 µM) | relative viability (Obatoclax + Tozasertib; first compound 0.3162 µM) | relative viability (Obatoclax + Tozasertib; first compound 1 µM) | relative viability (Bortezomib + Olaparib; first compound 0.0002 µM) | relative viability (Bortezomib + Olaparib; first compound 0.000632 µM) | relative viability (Bortezomib + Olaparib; first compound 0.002 µM) | relative viability (Bortezomib + Olaparib; first compound 0.006325 µM) | relative viability (Bortezomib + Olaparib; first compound 0.02 µM) | relative viability (Obatoclax + Palbociclib; first compound 0.01 µM) | relative viability (Obatoclax + Palbociclib; first compound 0.03162 µM) | relative viability (Obatoclax + Palbociclib; first compound 0.1 µM) | relative viability (Obatoclax + Palbociclib; first compound 0.3162 µM) | relative viability (Obatoclax + Palbociclib; first compound 1 µM)
1 | HOP-62 | 0.903 | 0.771 | 0.951 | 1.02 | 1.21 | 0.357 | 0.343 | 0.353 | 0.393 | 0.299 | 0.392 | 0.448 | 0.165 | 0.0947 | 0.0397 | 0.425 | 0.393 | 0.415 | 0.499 | 0.455
2 | LC-2-ad | 0.892 | 0.931 | 0.884 | 0.477 | 0.655 | 0.465 | 0.422 | 0.44 | 0.387 | 0.355 | 0.68 | 0.723 | 0.782 | 0.194 | 0.184 | 0.428 | 0.46 | 0.489 | 0.464 | 0.438
3 | LCLC-97TM1 | 0.27 | 0.232 | 0.283 | 0.227 | 0.293 | 0.268 | 0.255 | 0.232 | 0.215 | 0.21 | 0.343 | 0.431 | 0.264 | 0.0586 | 0.0773 | 0.193 | 0.223 | 0.204 | 0.199 | 0.25
4 | LCLC-103H | 0.938 | 0.907 | 0.97 | 0.961 | 1.02 | 0.498 | 0.472 | 0.505 | 0.477 | 0.553 | 0.747 | 0.778 | 0.671 | 0.355 | 0.202 | 0.432 | 0.356 | 0.472 | 0.517 | 0.446
5 | LK-2 | 1.07 | 1.13 | 1.43 | 1.07 | 1.03 | 0.194 | 0.175 | 0.197 | 0.208 | 0.149 | 0.699 | 0.695 | 0.714 | 0.169 | 0.123 | 0.661 | 0.728 | 0.764 |  | 0.825
6 | LOU-NH91 | 0.741 | 0.651 | 0.66 | 0.643 | 0.636 | 0.658 | 0.655 | 0.513 | 0.598 | 0.489 | 0.893 | 0.84 | 0.348 | 0.318 | 0.286 | 0.497 | 0.523 | 0.429 | 0.422 | 0.464
7 | LU99A | 0.626 | 0.641 | 0.567 | 0.3 | 0.2 | 0.304 | 0.28 | 0.287 | 0.288 | 0.233 | 0.238 | 0.26 | 0.242 | 0.154 | 0.122 | 0.426 | 0.377 |  | 0.402 | 0.4
8 | LXF-289 | 1.01 | 0.944 | 1.04 | 1.04 | 0.963 | 0.192 | 0.216 | 0.215 | 0.168 | 0.131 | 1.01 | 1.03 |  | 0.0822 | 0.0818 | 0.588 | 0.609 | 0.588 | 0.629 | 0.613
9 | NCI-H23 | 0.667 | 0.607 | 0.691 | 0.604 | 0.569 | 0.378 | 0.484 | 0.454 | 0.301 | 0.241 | 0.362 |  | 0.247 | 0.0989 | 0.0819 | 0.49 | 0.548 | 0.496 | 0.475 | 0.39
10 | NCI-H322M | 0.705 | 0.819 | 0.793 | 0.889 | 0.781 | 0.505 | 0.451 |  | 0.463 | 0.344 | 0.755 | 0.704 | 0.825 | 0.586 | 0.452 | 0.491 | 0.485 | 0.58 | 0.501 | 0.452
11 | NCI-H358 | 0.925 | 0.848 | 0.635 | 0.336 | 0.283 | 0.105 | 0.117 | 0.0958 | 0.0729 | 0.065 | 0.773 | 0.541 | 0.46 | 0.0684 | 0.076 | 0.13 | 0.127 | 0.142 | 0.114 | 0.117
12 | NCI-H441 | 0.662 | 0.822 | 0.632 | 0.419 | 0.327 | 0.497 | 0.677 | 0.666 | 0.52 | 0.385 | 0.446 | 0.601 | 0.165 | 0.11 | 0.102 | 0.231 | 0.214 | 0.261 | 0.167 | 0.155
13 | NCI-H460 | 0.509 | 0.481 | 0.309 | 0.0452 | 0.0244 | 0.419 | 0.504 | 0.424 | 0.443 | 0.188 | 0.355 | 0.422 | 0.392 | 0.0694 | 0.0397 | 0.153 | 0.14 | 0.201 | 0.055 | 0.0295
14 | NCI-H520 | 0.901 | 0.953 | 0.92 | 0.7 | 0.835 | 0.42 | 0.434 | 0.492 | 0.402 | 0.295 | 0.333 | 0.334 | 0.218 | 0.117 | 0.116 | 0.287 | 0.23 | 0.331 | 0.187 | 0.151
15 | NCI-H647 | 1.09 | 1.3 | 0.875 | 0.265 | 0.148 | 0.254 | 0.304 | 0.301 | 0.222 | 0.112 | 0.518 | 0.374 | 0.148 | 0.0277 | 0.0271 | 0.458 | 0.321 | 0.398 | 0.151 | 0.0783
16 | NCI-H661 | 0.643 | 0.507 | 0.261 | 0.458 | 0.84 | 0.365 | 0.336 | 0.393 | 0.355 | 0.357 | 0.745 | 0.69 | 0.78 | 0.376 | 0.213 | 0.393 | 0.397 | 0.465 | 0.413 | 0.34

From the supplement of paper PMC10307832
